A short description of this data set: activity coefficient (dimensionless); of the first substance listed, at infinite dilution; xn = mol fraction of the nth substance listed. The note with it: 101 kPa, Liquid, Chromatography, x1 = 0.

Numbers after ± are expanded uncertainties.

For `CCCCCCC` [heptane] + C[N+]1(CCCO)CCOCC1.O=S(=O)([N-]S(=O)(=O)C(F)(F)F)C(F)(F)F, the activity coefficient runs as follows: (298.15 K) 345 ± 24; (308.15 K) 280 ± 19; (318.15 K) 223 ± 15; (328.15 K) 192 ± 13; (338.15 K) 162 ± 11; (348.15 K) 141 ± 10. Also, the activity coefficient by setting is: (358.15 K) 116 ± 8; (368.15 K) 105 ± 7.
`CCC[N+](=O)[O-]` [1-nitropropane] + C[N+]1(CCCO)CCOCC1.O=S(=O)([N-]S(=O)(=O)C(F)(F)F)C(F)(F)F: the activity coefficient by setting is: (318.15 K) 1.24 ± 0.08; (328.15 K) 1.26 ± 0.08; (338.15 K) 1.28 ± 0.08; (348.15 K) 1.3 ± 0.08; (358.15 K) 1.32 ± 0.09; (368.15 K) 1.34 ± 0.09.
In the case of `Cc1cccc(C)c1` [1,3-dimethylbenzene] + C[N+]1(CCCO)CCOCC1.O=S(=O)([N-]S(=O)(=O)C(F)(F)F)C(F)(F)F, the activity coefficient by setting is: (318.15 K) 6.44 ± 0.44; (328.15 K) 6.55 ± 0.45; (338.15 K) 6.64 ± 0.45; (348.15 K) 6.73 ± 0.46; (358.15 K) 6.85 ± 0.47; (368.15 K) 6.92 ± 0.47.
Turning to `C=CCCCCC` [1-heptene] + C[N+]1(CCCO)CCOCC1.O=S(=O)([N-]S(=O)(=O)C(F)(F)F)C(F)(F)F, the activity coefficient reads like this: (318.15 K) 86.6 ± 5.9; (328.15 K) 75.8 ± 5.2; (338.15 K) 69.3 ± 4.7; (348.15 K) 62.2 ± 4.3; (358.15 K) 55.7 ± 3.8; (368.15 K) 51.1 ± 3.5.
In the case of `C=COC(C)=O` [vinyl acetate] + C[N+]1(CCCO)CCOCC1.O=S(=O)([N-]S(=O)(=O)C(F)(F)F)C(F)(F)F, the activity coefficient is, setting by setting: (318.15 K) 1.87 ± 0.13; (328.15 K) 1.91 ± 0.13; (338.15 K) 1.94 ± 0.13; (348.15 K) 1.98 ± 0.13; (358.15 K) 2 ± 0.14; (368.15 K) 2.03 ± 0.14.
As for `CC(C)(C)O` [2-methylpropan-2-ol] + C[N+]1(CCCO)CCOCC1.O=S(=O)([N-]S(=O)(=O)C(F)(F)F)C(F)(F)F, the activity coefficient by setting is: (318.15 K) 2.09 ± 0.14; (328.15 K) 2.06 ± 0.14; (338.15 K) 2.03 ± 0.14; (348.15 K) 2 ± 0.14; (358.15 K) 1.97 ± 0.13; (368.15 K) 1.95 ± 0.13.
For the molecule `CCCCCC` [hexane] + C[N+]1(CCCO)CCOCC1.O=S(=O)([N-]S(=O)(=O)C(F)(F)F)C(F)(F)F, the activity coefficient is, setting by setting: (298.15 K) 267 ± 18; (308.15 K) 201 ± 14; (318.15 K) 154 ± 11; (328.15 K) 122 ± 8.
Turning to `C#CCCCC` [1-hexyne] + C[N+]1(CCCO)CCOCC1.O=S(=O)([N-]S(=O)(=O)C(F)(F)F)C(F)(F)F, the activity coefficient by setting is: (318.15 K) 12.5 ± 0.9; (328.15 K) 11.9 ± 0.8; (338.15 K) 11.6 ± 0.8; (348.15 K) 11.2 ± 0.8; (358.15 K) 10.7 ± 0.7; (368.15 K) 10.4 ± 0.7.
Take `CC#N` [acetonitrile] + C[N+]1(CCCO)CCOCC1.O=S(=O)([N-]S(=O)(=O)C(F)(F)F)C(F)(F)F: the activity coefficient by setting is: (318.15 K) 0.479 ± 0.037; (328.15 K) 0.495 ± 0.038; (338.15 K) 0.513 ± 0.038; (348.15 K) 0.528 ± 0.039; (358.15 K) 0.545 ± 0.04; (368.15 K) 0.561 ± 0.04.
As for `CCCC=O` [butanal] + C[N+]1(CCCO)CCOCC1.O=S(=O)([N-]S(=O)(=O)C(F)(F)F)C(F)(F)F, the activity coefficient runs as follows: (318.15 K) 1.37 ± 0.09; (328.15 K) 1.4 ± 0.09; (338.15 K) 1.43 ± 0.09; (348.15 K) 1.45 ± 0.1; (358.15 K) 1.48 ± 0.1; (368.15 K) 1.5 ± 0.1.
Take `CCCCCCCC` [octane] + C[N+]1(CCCO)CCOCC1.O=S(=O)([N-]S(=O)(=O)C(F)(F)F)C(F)(F)F: the activity coefficient runs as follows: (318.15 K) 315 ± 22; (328.15 K) 265 ± 18; (338.15 K) 230 ± 16; (348.15 K) 199 ± 14; (358.15 K) 172 ± 12; (368.15 K) 152 ± 10.
As to `CCCCCCCCC` [nonane] + C[N+]1(CCCO)CCOCC1.O=S(=O)([N-]S(=O)(=O)C(F)(F)F)C(F)(F)F, the activity coefficient turned out to be 445 ± 31 (318.15 K); 385 ± 26 (328.15 K); 332 ± 23 (338.15 K); 287 ± 20 (348.15 K); 249 ± 17 (358.15 K); 224 ± 15 (368.15 K).
Consider `O` [water] + C[N+]1(CCCO)CCOCC1.O=S(=O)([N-]S(=O)(=O)C(F)(F)F)C(F)(F)F, for which the activity coefficient by setting is: (318.15 K) 1.43 ± 0.09; (328.15 K) 1.36 ± 0.09; (338.15 K) 1.28 ± 0.08; (348.15 K) 1.21 ± 0.08; (358.15 K) 1.15 ± 0.07; (368.15 K) 1.1 ± 0.07.
For `CCCCO` [butan-1-ol] + C[N+]1(CCCO)CCOCC1.O=S(=O)([N-]S(=O)(=O)C(F)(F)F)C(F)(F)F, the activity coefficient reads like this: (318.15 K) 3.23 ± 0.22; (328.15 K) 3.07 ± 0.21; (338.15 K) 2.96 ± 0.2; (348.15 K) 2.84 ± 0.19; (358.15 K) 2.73 ± 0.19; (368.15 K) 2.64 ± 0.18.
On to `CO` [methanol] + C[N+]1(CCCO)CCOCC1.O=S(=O)([N-]S(=O)(=O)C(F)(F)F)C(F)(F)F, for which the activity coefficient by setting is: (318.15 K) 0.945 ± 0.06; (328.15 K) 0.929 ± 0.059; (338.15 K) 0.915 ± 0.058; (348.15 K) 0.899 ± 0.057; (358.15 K) 0.884 ± 0.056; (368.15 K) 0.872 ± 0.056.
On to `C=CCCCCCCCC` [1-decene] + C[N+]1(CCCO)CCOCC1.O=S(=O)([N-]S(=O)(=O)C(F)(F)F)C(F)(F)F, for which the activity coefficient (318.15 K) was determined as 307 ± 21; the activity coefficient (328.15 K) came to 269 ± 18; the activity coefficient (338.15 K) is 243 ± 17; the activity coefficient (348.15 K) stood at 218 ± 15; the activity coefficient (358.15 K) worked out at 194 ± 13; the activity coefficient (368.15 K) turned out to be 176 ± 12.
Regarding `C1CCOC1` [tetrahydrofuran] + C[N+]1(CCCO)CCOCC1.O=S(=O)([N-]S(=O)(=O)C(F)(F)F)C(F)(F)F, the activity coefficient runs as follows: (318.15 K) 0.968 ± 0.061; (328.15 K) 1.03 ± 0.06; (338.15 K) 1.08 ± 0.07; (348.15 K) 1.12 ± 0.07; (358.15 K) 1.18 ± 0.08; (368.15 K) 1.23 ± 0.08.
With `c1ccccc1` [benzene] + C[N+]1(CCCO)CCOCC1.O=S(=O)([N-]S(=O)(=O)C(F)(F)F)C(F)(F)F, the activity coefficient is, setting by setting: (318.15 K) 2.53 ± 0.17; (328.15 K) 2.56 ± 0.17; (338.15 K) 2.58 ± 0.18; (348.15 K) 2.6 ± 0.18; (358.15 K) 2.63 ± 0.18; (368.15 K) 2.65 ± 0.18.
On to `CC(C)CC(C)(C)C` [2,2,4-trimethylpentane] + C[N+]1(CCCO)CCOCC1.O=S(=O)([N-]S(=O)(=O)C(F)(F)F)C(F)(F)F, for which the activity coefficient was found to be 272 ± 19 (318.15 K); 226 ± 16 (328.15 K); 191 ± 13 (338.15 K); 165 ± 11 (348.15 K); 140 ± 10 (358.15 K); 125 ± 9 (368.15 K).

For the origin of these results see the NIST ThermoML archive (doi:10.1016/j.jct.2015.02.024).
